Consider seven substances from PMC10731318, “Heterologously expressed SacP23, a novel bacteriocin from Paenibacillus polymyxa #23, is active against methicillin resistant Staphylococcus aureus” (Royal Society Open Science, 2023).

For series [1], the system named is S. aureus MRSA 344/2-24. Type of series: cell-based, Staphylococcus aureus.
The subject of series [2] is lipase. Conditions: lipase 1 mg ml^−1, 1 h; spot-on-lawn versus untreated sample.
The subject of series [3] is E. coli ATCC 25922. It is filed as cell-based. Conditions: purified SacP23, medium MHA.
The subject of series [4] is pronase E. The following applies: pronase E 1 mg ml^−1, 1 h; spot-on-lawn versus untreated sample.
Series [5] deals with B. subtilis BS34A. Type of series: cell-based, Bacillus subtilis.
In series [6] the test system is B. cereus ATCC 10876. Type of series: cell-based, Bacillus cereus. The following applies: purified SacP23, medium MHA.
In series [7] the test system is C. perfringens EHE-NE18. It is filed as cell-based, Clostridium perfringens. The following applies: purified SacP23, medium MHA.
The subject of series [8] is S. aureus ATCC 25923. Type of series: cell-based, Staphylococcus aureus. The following applies: purified SacP23, medium MHA, clear zone, 30°C 12–18 h.
The test system of series [9] is trypsin. Conditions: trypsin 1 mg ml^−1, 1 h; spot-on-lawn versus untreated sample.
Series [10] relates to C. jejuni ATCC 81116. It is filed as cell-based, Campylobacter jejuni. The following applies: purified SacP23, medium MHA + 5% sheep blood.
Series [11] deals with L. plantarum A6. Type of series: cell-based, Lactobacillus plantarum. Conditions: purified SacP23, medium deMan, Rogosa and Sharpe (MRS).
The target of series [12] is proteinase K (Parengyodontium album, UniProt P06873). Conditions: proteinase K 1 mg ml^−1, 1 h; spot-on-lawn versus untreated sample.
Chain of proteinase K (P06873 106-384): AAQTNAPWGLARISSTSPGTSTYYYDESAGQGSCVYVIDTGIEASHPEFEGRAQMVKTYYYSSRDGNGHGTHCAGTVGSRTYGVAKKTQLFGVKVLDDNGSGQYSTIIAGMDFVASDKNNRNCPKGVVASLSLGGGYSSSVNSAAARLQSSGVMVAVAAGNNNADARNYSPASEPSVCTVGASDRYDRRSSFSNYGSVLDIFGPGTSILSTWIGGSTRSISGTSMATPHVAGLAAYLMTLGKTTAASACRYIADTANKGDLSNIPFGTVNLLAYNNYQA
In series [13] the test system is S. Enteritidis ATCC 13076. It is filed as cell-based, Salmonella Enteritidis. Conditions: purified SacP23, medium MHA.
In series [14] the test system is E. faecalis (VRE) 345/19. Type of series: cell-based, Enterococcus faecalis. The following applies: purified SacP23, medium MRS.
The subject of series [15] is L. monocytogenes192/1-2 ACM 3173. Type of series: cell-based, Listeria monocytogenes. Conditions: purified SacP23; L. monocytogenes 192/1-2 ACM 3173; medium MHA.
For series [16], the system named is catalase. The following applies: catalase 1 mg ml^−1, 1 h; spot-on-lawn versus untreated sample.
Series [17] has as its system Gram-positive and Gram-negative bacteria. Conditions: cited from earlier work. The source says: Further studies need to be undertaken to fully assess the potency of the SacP23 by performing minimum inhibitory concentration tests for a range of sensitive bacteria. […] This indicates the diversity in antimicrobial spectra of sactipeptide-type ...
For series [18], the system named is many phytopathogens and Gram-positive bacteria. The following applies: cited from earlier work.
Series [19] has as its system Gram-negative and Gram-positive pathogens including antibiotic-resistant strains of E. coli, P. aeruginosa, Acinetobacter baumannii, K. pneumoniae, S. aureus …. Conditions: cited from earlier work.
For series [20] the following is noted: isolated from a Cyanobacteria sp.; cited from earlier work.
Series [21] concerns Pseudomonas aeruginosa and K. pneumonia. The following applies: cited from earlier work.
The test system of series [22] is many Gram-negative bacteria including colistin-resistant Klebsiella pneumonia, E. coli, and Campylobacter species. The following applies: cited from earlier work.

Consider “MRKLVKRSTNVGDTIEAFGCGCSCYCPCSCYCAGSLTRSSNTSRESDGSYRRDNGTGIGN [SacP23]”, for which the “antimicrobial activity against an MRSA isolate” value in [1] (heterologously expressed recombinant SacP23, result in words) is “strong activity”. The antimicrobial activity entry in [1] (purified SacP23, S. aureus MRSA 344/2-24, medium MHA, clear zone, 30°C 12–18 h) is recorded as “+”; in series [3] it was “−”; in series [5] (purified SacP23, B. subtilis BS34A, medium MHA) it was “+”; in series [6] it was “+”; in series [7], “−”; in series [8], “+”. Further, the antimicrobial activity result in series [10] is “−”; in series [11] it was “−”; in [13], “−”; in [14], “+”; in series [15] it was “−”. Further, the “enzymatic stability: remaining antimicrobial activity after lipase” value in series [2] is listed as “resistant”. Moreover, the “enzymatic stability: remaining antimicrobial activity after pronase E” value in [4] is “sensitive”. In addition, in [5] (recombinant SacP23, result in words), the “sensitivity of the base B. subtilis expression strain” value is listed as “sensitive”. Besides, the “enzymatic stability: remaining antimicrobial activity after trypsin” value in [9] is “sensitive”. The “enzymatic stability: remaining antimicrobial activity after proteinase K” value in series [12] was “sensitive”. The “enzymatic stability: remaining antimicrobial activity after catalase” value in series [16] was “resistant”.
In the case of “subtilosin A (cyclo(NKGCATCSIGAACLVDGPIPDFEIAGATGLFGLWG); ends not checked; also: sactipeptide thioether linkages between Cys and alpha-carbons, positions not given here; UniProt O07623 9-43, looked up)”, the antimicrobial spectrum entry in series [17] was “antimicrobial activity extending to both Gram-positive and Gram-negative bacteria”.
In the case of fusaricidin B, in series [18], the inhibitory activity entry is “inhibitory activity”.
In the case of paenibacterin, the antimicrobial activity entry in series [19] is on record as “antimicrobial activity”.
With landornamide A, the antiviral activity result in series [20] is recorded as “antiviral activity”.
As to Polymyxin, the growth suppression result in series [21] is given as “suppress the growth”.
Consider Tridecaptin, for which, in [22], the “activity against Gram-negative bacteria” value is “strong activity”.
